Structures can show the parent of a compound that is named as a salt. Where two headings read alike, the source gives them in different places.
Tests used:
[1] = system: mice with contusive T9 moderate SCI (IH); details: IH model
Source text: Rotarod test: Rotorod is used to assay the hindlimb function of the animal. The animal was put on a rotated device. It consisted of a metal frame with a motorized, rotating assembly of rods. Animals were allowed to remain stationary. […] If animal skilled, it can remain on the device at this speed for extra 30 sec until the 2-min test period elapsed. Normally, a trial was ended if the animal fell completely off the rod or gripped the rod and spun around without attempting to walk on the rod. Mean duration on the rod was recorded.

[2] = system: mouse with a SCI
Protocol: Referring to FIGS. 5A-5C, to evaluate the coordination of bladder and external urethral sphincter, urodynamic recordings were performed. Bladder cystometrograph (CMG) and external urethral sphincter electromyography (EMG) were co-recorded. The peak intravesical pressure in CMG indicates the contraction of bladder detrusor. The bursting signal in external urethral sphincter EMG is a sign of relaxation of external urethral sphincter. The coordination of bladder and external urethral sphincter was reflected by the synchronization of two signals. […] In chronically injured mice, restoration of reflex external urethral sphincter relaxation correlates with the re-appearance of external urethral sphincter bursting. Therefore, external urethral sphincter bursting is a good indicator of external urethral sphincter functional recovery after SCI in mice.

[3] = system: mice with contusive T9 moderate SCI (IH); details: Dex 100 μg/kg one hour post-trauma, IH model, ambient 24.5° C.
Protocol: Contusive spinal cord injury: Adult female C57BL/6 mice (8 weeks old, 18-22 g) were purchased from The Jackson Laboratory (Bar Harbor, ME). Depending on different injury model, mice were either randomly divided into three groups: sham, SCI+heating pad, and SCI+Dex for LISA injury model, or were randomly divided into four groups: sham, SCI+heating pad, SCI+Dex, and SCI+Conventional hypothermia for Infinite Horizons (IH) model. […] All animal care, handling, and surgery were performed in accordance with the Guide for the Care and Use of Laboratory Animals (National Research Council) and the Guidelines of the Institutional Animal Care and Use Committee of Indiana University School of Medicine. Spinal cord contusion was made at the thoracic (T9) vertebral level. After avertin anesthesia, animals will be placed on a thermometer-controlled heating pad for the duration of recovery (except Dex and conventional hypothermia treated group). For LISA injury model, C57/6J mice were anesthetized. […] The T9 contusion injury was performed using a LISA impactor, where the injury level was determined using a laser sensor. After injury confirmation, the surgical area is sutured, the animal is hydrated and monitored for post-operative care, including analgesia and bladder expression. […]

[4] = system: mice with contusive T9 moderate SCI (IH); details: 6 wk, SCI+Dex, n=10
Protocol: (§1) Grid-walking: The grid-walking test assesses the ability of a mouse to place its paws on the rungs of a grid accurately during spontaneous exploration. An elevated metal rectangle grid (12×36 inch2 with each grid cell 0.5×0.5 inch2) and 16 inches above a table top was used for the hindlimb drop error test. Each mouse was placed in the center of the grid for 3 min. A one-foot drop error was counted when the hindlimb paw was entirely dropping through the grid with all toes and heel below the grid surface. The total number of foot drop errors and total number of steps were recorded by video. Two observers who were blinded to the experiment analyzed the video and counted the steps. The grid-walking test was performed on the day before surgery and on days 21 and 35 post-SCI. Only those mice with consistent plantar stepping (BMS≥5) were tested on the grid.

[5] = system: c-fos positive neurons in raphe nuclei; details: during urodynamic recording
Source text: During the urodynamic recording, brain stem neurons controlling the urination within the spared supraspinal circuitry were activated and expressed c-fos.

[6] = system: mice with moderate T9 contusive SCI; details: n=10; for foot fall rate: Dex+SCI
Source text: In addition to Rotarod test, Grid walk test further was ran twice at […] post-injury to assess hindlimb movements involved in sensorimotor functions, such as precise stepping, coordination and accurate placement of the paw. A one-foot drop error was counted when the hindlimb paw was entirely dropping through the grid with all toes and heel below the grid surface.
as §1

[7] = system: mice with moderate T9 contusive SCI
Source text: Therefore, we compared the functional outcomes of Dex treated SCI mice with SCI only mice using multiple behavior tests post-trauma. C57 BL/6 wild type mice (female) at age of 8 weeks were randomly assigned into three different groups, including sham, SCI, and SCI+Dex. Then the moderate T9 contusive SCI was introduced in two injury groups using LISA injury model. Mice in sham and SCI only group were put on the heating pad to maintain their normal body temperature, while mice in Dex treated group were exposed in ambient room temperature of 24.5° C. for hypothermia during whole surgery and recovery process. One hour after injury, one dose of Dex (100 μg/kg) was IP administrated to rapidly induce early moderate to modest therapeutic hypothermia (30-32° C.). All mice body temperature were measured by rectal probe every 30 minutes to monitor the hypothermia after surgery till the mice fully waked up and back to normothermia. After SCI injury, at different time, multiple behavioral tests, were applied to examine functional outcomes and the potential neuroprotective effects of Dex treatment (FIG. 3A). The Basso Mouse Scale (BMS) was a reliable measurement that developed to examine the locomotion in spinal cord injured mice. It has been widely used in mouse functional evaluation and serves as an indicator of recovery. This test examines different locomotor categories such as paralysis, weight support, stepping, trunk stability, and so on. The scores ranged from 9 to 0 that represent normal movement to complete paralysis, respectively. Three days prior surgery, the BMS scores of all mice in different groups were measured. Only mice with 9 score were kept. The mice with score lower than 9 were replaced to make sure mice in different groups had same baseline of locomotion. After surgery, the BMS score was repeatedly measured at 3 days, 1 week, 2 weeks, 3 weeks, 4 weeks, 5 weeks, and 6 weeks (FIG. 3B).
Contusive spinal cord injury: Adult female C57BL/6 mice (8 weeks old, 18-22 g) were purchased from The Jackson Laboratory (Bar Harbor, ME). Depending on different injury model, mice were either randomly divided into three groups: sham, SCI+heating pad, and SCI+Dex for LISA injury model, or were randomly divided into four groups: sham, SCI+heating pad, SCI+Dex, and SCI+Conventional hypothermia for Infinite Horizons (IH) model. […] All animal care, handling, and surgery were performed in accordance with the Guide for the Care and Use of Laboratory Animals (National Research Council) and the Guidelines of the Institutional Animal Care and Use Committee of Indiana University School of Medicine. Spinal cord contusion was made at the thoracic (T9) vertebral level. After avertin anesthesia, animals will be placed on a thermometer-controlled heating pad for the duration of recovery (except Dex and conventional hypothermia treated group). For LISA injury model, C57/6J mice were anesthetized. A midline skin incision was made to expose the thoracolumbar spine, followed by the removal of the T9 spinous process and lamina to expose the dura mater. The displacement was set to be 0.5 mm. The T9 contusion injury was performed using a LISA impactor, where the injury level was determined using a laser sensor. After injury confirmation, the surgical area is sutured, the animal is hydrated and monitored for post-operative care, including analgesia and bladder expression. For IH model, a 1-inch skin incision was placed on the dorsal midline, musculature was retracted, and then the spinal column was visualized and placed into a stabilizer with two clamps retracting the spinous processes of the vertebrae directly surrounding the injury site. A laminectomy was performed to expose the dura.

[8] = system: mice with contusive T9 moderate SCI (IH); details: end of BMS test, IH model
Source text: The scores ranged from 9 to 0 that represent normal movement to complete paralysis, respectively.

Cc1cccc([C@H](C)c2cnc[nH]2)c1C [Dex, dexmedetomidine hydrochloride]
Rotarod duration time ([1]; 6 wk, SCI+Dex, n=10): 35.3±1.84
Rotarod average increase rate vs. none-treatment SCI mice [1]: 55%
voiding efficiency ([2]; n=5, p<0.05 vs. SCI group): 15.9±6.6%
bladder capacity ([2]; p<0.05 vs. SCI group): 0.56 ± 0.31 mL
synchronization of bladder CMG and external urethral sphincter EMG signals ([2]; vs. SCI): enhanced the synchronization
duration of moderate hypothermia [3]: 16 h
Grid walk foot fall [4]: 12.9±3.6
c-fos positive neurons in raphe nuclei vs. SCI group [5]: Significantly more c-fos positive neurons
foot fall rate ([6]; 4 weeks post-injury): 17.3±5.1%
foot fall rate ([6]; 6 weeks post-injury): 12.9±3.6%
recovery of sensorimotor functions (Grid Walk) ([6]; FIG. 3D, female): better recovery of sensorimotor functions
locomotion recovery (BMS) compared to none-treatment SCI group ([7]; FIG. 3B, female, n=10): better locomotion recovery
improvement of locomotor function in BMS test ([7]; compared with about 25% for hypothermia alone (meta-analysis)): 70%
BMS score compared to SCI only group ([7]; day 3 post-injury, Dex 100 μg/kg IP one hour after injury): did not show the significant difference
average BMS score ([7]; one week after surgery, Dex 100 μg/kg IP): ~5
increase of BMS score compared to SCI only group ([7]; week 6 (end of test)): over 65%
BMS score ([7]; week 6 (end of test), Dex 100 μg/kg IP): about 7.8
BMS increase rate vs. SCI [8]: 56%
BMS score ([8]; SCI+Dex, n=10): 7.13±0.48

Source: patent publication US20250288558A1, “THERAPEUTIC FOR SPINAL CORD INJURY TO INDUCE HYPOTHERMIA” (The Trustees of Indiana University, priority 2024, published 2025)
